From PubChem BioAssay (NCI)
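Interpolation was linear, between the two tested concentrations surrounding the appropriate level; five concentrations were tested over 48 hours in 96-well plates. At the TGI there is no net growth.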

Assays:
Test in all cases: inhibition of tumour cell growth, NCI panel, 48 h
786-0 renal = system: 786-0 renal
A498 renal = system: A498 renal
A549 NSCLC = system: A549 NSCLC
CAKI-1 renal = system: CAKI-1 renal
CCRF-CEM leukemia = system: CCRF-CEM leukemia
DLD-1 colon = system: DLD-1 colon
DMS 114 small cell lung = system: DMS 114 small cell lung
DMS 273 small cell lung = system: DMS 273 small cell lung
EKVX NSCLC = system: EKVX NSCLC
HCT-116 colon = system: HCT-116 colon
HCT-15 colon = system: HCT-15 colon
HL-60(TB) leukemia = system: HL-60(TB) leukemia
HOP-18 NSCLC = system: HOP-18 NSCLC
HOP-62 NSCLC = system: HOP-62 NSCLC
HOP-92 NSCLC = system: HOP-92 NSCLC
HT29 colon = system: HT29 colon
IGROV1 ovarian = system: IGROV1 ovarian
K-562 leukemia = system: K-562 leukemia
KM12 colon = system: KM12 colon
KM20L2 colon = system: KM20L2 colon
LOX IMVI melanoma = system: LOX IMVI melanoma
LXFL 529 NSCLC = system: LXFL 529 NSCLC
M14 melanoma = system: M14 melanoma
M19-MEL melanoma = system: M19-MEL melanoma
MALME-3M melanoma = system: MALME-3M melanoma
MOLT-4 leukemia = system: MOLT-4 leukemia
NCI-H23 lung = system: NCI-H23 lung
NCI-H460 lung = system: NCI-H460 lung
NCI-H522 lung = system: NCI-H522 lung
OVCAR-3 ovarian = system: OVCAR-3 ovarian
OVCAR-5 ovarian = system: OVCAR-5 ovarian
OVCAR-8 ovarian = system: OVCAR-8 ovarian
RPMI-8226 leukemia = system: RPMI-8226 leukemia
RXF 393 renal = system: RXF 393 renal
SF-268 CNS = system: SF-268 CNS
SF-295 CNS = system: SF-295 CNS
SF-539 CNS = system: SF-539 CNS
SK-MEL-2 melanoma = system: SK-MEL-2 melanoma
SK-MEL-28 melanoma = system: SK-MEL-28 melanoma
SK-MEL-5 melanoma = system: SK-MEL-5 melanoma
SK-OV-3 ovarian = system: SK-OV-3 ovarian
SNB-19 CNS = system: SNB-19 CNS
SNB-78 CNS = system: SNB-78 CNS
SR leukemia = system: SR leukemia
SW-620 colon = system: SW-620 colon
TK-10 renal = system: TK-10 renal
U251 CNS = system: U251 CNS
UACC-257 melanoma = system: UACC-257 melanoma
UACC-62 melanoma = system: UACC-62 melanoma
UO-31 renal = system: UO-31 renal
XF 498 CNS = system: XF 498 CNS
ACHN renal = system: ACHN renal
BT-549 breast = system: BT-549 breast
COLO 205 colon = system: COLO 205 colon
DU-145 prostate = system: DU-145 prostate
HCC-2998 colon = system: HCC-2998 colon
HS 578T breast = system: HS 578T breast
MCF7 breast = system: MCF7 breast
MDA-MB-231 breast = system: MDA-MB-231 breast
MDA-MB-435 = system: MDA-MB-435
NCI-H226 lung = system: NCI-H226 lung
NCI/ADR-RES ovarian = system: NCI/ADR-RES ovarian
OVCAR-4 ovarian = system: OVCAR-4 ovarian
PC-3 prostate = system: PC-3 prostate
SN12C renal = system: SN12C renal
SNB-75 CNS = system: SNB-75 CNS
T-47D breast = system: T-47D breast

CCCCCCc1cc2c(C)c(C)c(=O)oc2cc1OCCCOc1cc2oc(=O)c(C)c(C)c2cc1CCCCCC
TGI (786-0 renal): > 100 µM | TGI (A498 renal): > 100 µM | TGI (A549 NSCLC): > 100 µM | TGI (CAKI-1 renal): > 100 µM | TGI (CCRF-CEM leukemia): > 100 µM | TGI (DLD-1 colon): > 100 µM | TGI (DMS 114 small cell lung): > 100 µM | TGI (DMS 273 small cell lung): > 100 µM | TGI (EKVX NSCLC): > 100 µM | TGI (HCT-116 colon): > 100 µM | TGI (HCT-15 colon): > 100 µM | TGI (HL-60(TB) leukemia): > 100 µM | TGI (HOP-18 NSCLC): > 100 µM | TGI (HOP-62 NSCLC): > 100 µM | TGI (HOP-92 NSCLC): > 100 µM | TGI (HT29 colon): > 100 µM | TGI (IGROV1 ovarian): > 100 µM | TGI (K-562 leukemia): > 100 µM | TGI (KM12 colon): > 100 µM | TGI (KM20L2 colon): > 100 µM | TGI (LOX IMVI melanoma): > 100 µM | TGI (LXFL 529 NSCLC): > 100 µM | TGI (M14 melanoma): > 100 µM | TGI (M19-MEL melanoma): > 100 µM | TGI (MALME-3M melanoma): > 100 µM | TGI (MOLT-4 leukemia): > 100 µM | TGI (NCI-H23 lung): > 100 µM | TGI (NCI-H460 lung): > 100 µM | TGI (NCI-H522 lung): > 100 µM | TGI (OVCAR-3 ovarian): > 100 µM | TGI (OVCAR-5 ovarian): > 100 µM | TGI (OVCAR-8 ovarian): > 100 µM | TGI (RPMI-8226 leukemia): > 100 µM | TGI (RXF 393 renal): > 100 µM | TGI (SF-268 CNS): > 100 µM | TGI (SF-295 CNS): > 100 µM | TGI (SF-539 CNS): > 100 µM | TGI (SK-MEL-2 melanoma): > 100 µM | TGI (SK-MEL-28 melanoma): > 100 µM | TGI (SK-MEL-5 melanoma): > 100 µM | TGI (SK-OV-3 ovarian): > 100 µM | TGI (SNB-19 CNS): > 100 µM | TGI (SNB-78 CNS): > 100 µM | TGI (SR leukemia): > 100 µM | TGI (SW-620 colon): > 100 µM | TGI (TK-10 renal): > 100 µM | TGI (U251 CNS): > 100 µM | TGI (UACC-257 melanoma): > 100 µM | TGI (UACC-62 melanoma): > 100 µM | TGI (UO-31 renal): > 100 µM | TGI (XF 498 CNS): > 100 µM

NC(N)=NS(=O)(=O)c1ccc(NC(=O)c2cccc3c(=O)c4ccccc4[nH]c23)cc1
TGI (786-0 renal): > 92.6 µM | TGI (A498 renal): > 100 µM | TGI (A549 NSCLC): > 100 µM | TGI (ACHN renal): > 100 µM | TGI (BT-549 breast): > 100 µM | TGI (CAKI-1 renal): > 100 µM | TGI (CCRF-CEM leukemia): > 31.6 µM | TGI (COLO 205 colon): > 100 µM | TGI (DLD-1 colon): > 100 µM | TGI (DMS 114 small cell lung): > 100 µM | TGI (DMS 273 small cell lung): > 100 µM | TGI (DU-145 prostate): > 100 µM | TGI (EKVX NSCLC): > 100 µM | TGI (HCC-2998 colon): > 100 µM | TGI (HCT-116 colon): > 100 µM | TGI (HCT-15 colon): > 100 µM | TGI (HL-60(TB) leukemia): > 100 µM | TGI (HOP-18 NSCLC): > 100 µM | TGI (HOP-62 NSCLC): > 100 µM | TGI (HOP-92 NSCLC): > 96.2 µM | TGI (HS 578T breast): > 100 µM | TGI (HT29 colon): > 100 µM | TGI (IGROV1 ovarian): > 100 µM | TGI (K-562 leukemia): > 56.2 µM | TGI (KM12 colon): > 100 µM | TGI (KM20L2 colon): > 100 µM | TGI (LOX IMVI melanoma): > 100 µM | TGI (LXFL 529 NSCLC): > 100 µM | TGI (M14 melanoma): > 100 µM | TGI (M19-MEL melanoma): > 100 µM | TGI (MALME-3M melanoma): > 100 µM | TGI (MCF7 breast): > 100 µM | TGI (MDA-MB-231 breast): > 100 µM | TGI (MDA-MB-435): > 100 µM | TGI (MOLT-4 leukemia): > 100 µM | TGI (NCI-H226 lung): > 100 µM | TGI (NCI-H23 lung): > 100 µM | TGI (NCI-H460 lung): > 100 µM | TGI (NCI-H522 lung): > 100 µM | TGI (NCI/ADR-RES ovarian): > 100 µM | TGI (OVCAR-3 ovarian): > 100 µM | TGI (OVCAR-4 ovarian): > 100 µM | TGI (OVCAR-5 ovarian): > 100 µM | TGI (OVCAR-8 ovarian): > 100 µM | TGI (PC-3 prostate): > 100 µM | TGI (RPMI-8226 leukemia): > 100 µM | TGI (RXF 393 renal): > 80.3 µM | TGI (SF-268 CNS): > 100 µM | TGI (SF-295 CNS): > 100 µM | TGI (SF-539 CNS): > 100 µM | TGI (SK-MEL-2 melanoma): > 100 µM | TGI (SK-MEL-28 melanoma): > 100 µM | TGI (SK-MEL-5 melanoma): > 100 µM | TGI (SK-OV-3 ovarian): > 91.9 µM | TGI (SN12C renal): > 100 µM | TGI (SNB-19 CNS): > 100 µM | TGI (SNB-75 CNS): 51.3 µM | TGI (SNB-78 CNS): > 100 µM | TGI (SR leukemia): > 100 µM | TGI (SW-620 colon): > 100 µM | TGI (T-47D breast): > 100 µM | TGI (TK-10 renal): > 81.2 µM | TGI (U251 CNS): 69.2 µM | TGI (UACC-257 melanoma): > 100 µM | TGI (UACC-62 melanoma): > 100 µM | TGI (UO-31 renal): > 100 µM | TGI (XF 498 CNS): > 100 µM

COC(c1ccccc1)C(c1ccccc1)N1CCOCC1 (centres undefined)
TGI (786-0 renal): > 100 µM | TGI (A498 renal): > 100 µM | TGI (A549 NSCLC): > 100 µM | TGI (ACHN renal): > 100 µM | TGI (CAKI-1 renal): > 100 µM | TGI (CCRF-CEM leukemia): > 100 µM | TGI (COLO 205 colon): > 100 µM | TGI (DLD-1 colon): > 100 µM | TGI (DMS 114 small cell lung): > 100 µM | TGI (DMS 273 small cell lung): > 100 µM | TGI (EKVX NSCLC): > 100 µM | TGI (HCC-2998 colon): > 100 µM | TGI (HCT-116 colon): > 100 µM | TGI (HL-60(TB) leukemia): > 100 µM | TGI (HOP-18 NSCLC): > 100 µM | TGI (HOP-62 NSCLC): > 100 µM | TGI (HOP-92 NSCLC): > 100 µM | TGI (HT29 colon): > 100 µM | TGI (IGROV1 ovarian): > 100 µM | TGI (K-562 leukemia): > 100 µM | TGI (KM12 colon): > 100 µM | TGI (KM20L2 colon): > 100 µM | TGI (LOX IMVI melanoma): > 100 µM | TGI (LXFL 529 NSCLC): > 100 µM | TGI (M14 melanoma): > 100 µM | TGI (M19-MEL melanoma): > 100 µM | TGI (MALME-3M melanoma): > 100 µM | TGI (MOLT-4 leukemia): > 100 µM | TGI (NCI-H226 lung): > 100 µM | TGI (NCI-H23 lung): > 100 µM | TGI (NCI-H460 lung): > 100 µM | TGI (NCI-H522 lung): > 100 µM | TGI (OVCAR-3 ovarian): > 100 µM | TGI (OVCAR-4 ovarian): > 100 µM | TGI (OVCAR-5 ovarian): > 100 µM | TGI (OVCAR-8 ovarian): > 100 µM | TGI (RPMI-8226 leukemia): > 100 µM | TGI (RXF 393 renal): > 100 µM | TGI (SF-268 CNS): > 100 µM | TGI (SF-295 CNS): > 100 µM | TGI (SF-539 CNS): > 100 µM | TGI (SK-MEL-2 melanoma): > 100 µM | TGI (SK-MEL-28 melanoma): > 100 µM | TGI (SK-MEL-5 melanoma): > 100 µM | TGI (SK-OV-3 ovarian): > 100 µM | TGI (SN12C renal): > 100 µM | TGI (SNB-19 CNS): > 100 µM | TGI (SNB-75 CNS): > 100 µM | TGI (SNB-78 CNS): > 100 µM | TGI (SW-620 colon): > 100 µM | TGI (TK-10 renal): > 100 µM | TGI (U251 CNS): > 100 µM | TGI (UACC-257 melanoma): > 100 µM | TGI (UACC-62 melanoma): > 100 µM | TGI (UO-31 renal): > 100 µM | TGI (XF 498 CNS): > 100 µM
